Holding throughout (type): biochemical
For one assay, the target named is JAK3 (Homo sapiens (Human), UniProt P52333). As to the kind of experiment: JAK Caliper Enzyme Assay at 1 mM ATP, JAK3. Summed up: (§1)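 Recombinant human kinase domains phosphorylated a fluorescent synthetic peptide at room temperature, with enzyme level and time tuned to 20% to 30% conversion; EDTA stop buffer ended reactions. Mobility-shift separation gave percent product from peak heights, normalised to DMSO and positive controls, and IC50s came from concentration–effect curves.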

The target of the next assay is JAK1 (Homo sapiens (Human), UniProt P23458). Kind of assay: JAK Caliper Enzyme Assay at 1 mM ATP, JAK1. An outline of the steps:
as §1

The target of another assay is JAK2 (Homo sapiens (Human), UniProt O60674). Kind of assay: JAK Caliper Enzyme Assay at 1 mM ATP, JAK2. An outline of the steps: (§2)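 Human recombinant kinase domain + fluorescently labelled synthetic peptide, 1 mM ATP, RT; enzyme level/time set for 20–30% phosphorylation. EDTA stop. LabChip separation, peak-height % conversion, % effect vs plate controls.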
The target of a further assay is TYK2 (Homo sapiens (Human), UniProt P29597). Kind of assay: JAK Caliper Enzyme Assay at 1 mM ATP, TYK2. An outline of the steps: as §2

Usually IC50 stands for the midpoint of a concentration-inhibition curve.

JAK2, sequence (O60674 849-1124): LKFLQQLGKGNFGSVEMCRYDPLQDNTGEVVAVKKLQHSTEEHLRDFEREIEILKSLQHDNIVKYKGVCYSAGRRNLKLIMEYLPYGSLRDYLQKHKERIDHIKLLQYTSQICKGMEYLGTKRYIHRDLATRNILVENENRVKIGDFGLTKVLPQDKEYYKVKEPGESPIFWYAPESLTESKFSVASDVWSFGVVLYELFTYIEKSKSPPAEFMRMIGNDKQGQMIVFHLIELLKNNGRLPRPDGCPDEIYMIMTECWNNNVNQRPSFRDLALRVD
JAK3, sequence (P52333 822-1111): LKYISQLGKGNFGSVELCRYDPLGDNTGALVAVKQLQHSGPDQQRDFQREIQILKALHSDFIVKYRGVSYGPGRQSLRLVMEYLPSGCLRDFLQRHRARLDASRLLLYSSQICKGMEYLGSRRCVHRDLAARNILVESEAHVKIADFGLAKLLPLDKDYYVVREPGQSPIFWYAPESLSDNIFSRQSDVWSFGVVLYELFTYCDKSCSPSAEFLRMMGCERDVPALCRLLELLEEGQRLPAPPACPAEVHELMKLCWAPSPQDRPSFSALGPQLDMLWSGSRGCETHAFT
JAK1, sequence (P23458 875-1153): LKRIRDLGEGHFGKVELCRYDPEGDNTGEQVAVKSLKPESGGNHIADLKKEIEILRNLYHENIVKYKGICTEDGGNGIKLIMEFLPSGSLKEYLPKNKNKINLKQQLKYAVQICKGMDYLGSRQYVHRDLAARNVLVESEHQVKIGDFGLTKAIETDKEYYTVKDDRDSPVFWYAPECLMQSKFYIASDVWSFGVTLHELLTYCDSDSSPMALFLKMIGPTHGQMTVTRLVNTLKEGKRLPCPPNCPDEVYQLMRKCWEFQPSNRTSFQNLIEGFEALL
TYK2, sequence (P29597 897-1176): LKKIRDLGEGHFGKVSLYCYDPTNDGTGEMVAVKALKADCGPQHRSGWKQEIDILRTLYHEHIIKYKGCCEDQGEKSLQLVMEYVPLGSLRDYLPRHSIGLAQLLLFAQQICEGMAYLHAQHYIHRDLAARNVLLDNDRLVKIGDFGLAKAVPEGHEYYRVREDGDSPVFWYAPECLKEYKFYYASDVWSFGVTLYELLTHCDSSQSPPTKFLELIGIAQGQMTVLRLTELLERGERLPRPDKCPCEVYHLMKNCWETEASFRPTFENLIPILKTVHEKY

In the case of `N#CC[C@]1(n2ccc(-c3nc(-c4ccnc(C(N)=O)n4)cc4ncccc34)n2)C[C@H](C#N)C1` [Example 244, 4-(5-{1-[cis-3-cyano-1-(cyanomethyl)cyclobutyl]-1H-pyrazol-3-yl}-1,6-naphthyridin-7-yl)pyrimidine-2-carboxamide], the IC50 at JAK3 was more than 10000 nM; on JAK1, more than 10000 nM; at JAK2, more than 10000 nM; on TYK2 it was 424 nM.
In the case of `CS(=O)(=O)N1CC(CC#N)(n2ccc(-c3nc(-c4ccc(=O)[nH]c4)cc4ncccc34)n2)C1` [Example 245, [1-(methylsulfonyl)-3-{3-[7-(6-oxo-1,6-dihydropyridin-3-yl)-1,6-naphthyridin-5-yl]-1H-pyrazol-1-yl}azetidin-3-yl]acetonitrile], the IC50 on JAK3 is more than 10000 nM; at JAK1 it was 220 nM; on JAK2, 131 nM; on TYK2, 11 nM.
For the compound `N#CCC1(n2ccc(-c3nc(-c4ccc(=O)[nH]c4)cc4ncccc34)n2)CN(S(=O)(=O)C2CC2)C1` [Example 246, [1-(cyclopropylsulfonyl)-3-{3-[7-(6-oxo-1,6-dihydropyridin-3-yl)-1,6-naphthyridin-5-yl]-1H-pyrazol-1-yl}azetidin-3-yl]acetonitrile], the IC50 at JAK3 was more than 10000 nM; on JAK1, 554 nM; at JAK2, 971 nM; at TYK2, 32 nM.
For `CO[C@H]1C[C@@](CC#N)(n2ccc(-c3nc(-c4ccc(=O)[nH]c4)cc4ncccc34)n2)C1` [Example 247, (cis-3-methoxy-1-{3-[7-(6-oxo-1,6-dihydropyridin-3-yl)-1,6-naphthyridin-5-yl]-1H-pyrazol-1-yl}cyclobutyl)acetonitrile], the IC50 on JAK3 is more than 10000 nM; on JAK1 it was 1340 nM; at JAK2 it was 778 nM; on TYK2, 49 nM.
For the compound `Cn1cc(-c2cc3ncccc3c(-c3ccn(C4(CC#N)CN(S(C)(=O)=O)C4)n3)n2)ccc1=O` [Example 248, [3-{3-[7-(1-methyl-6-oxo-1,6-dihydropyridin-3-yl)-1,6-naphthyridin-5-yl]-1H-pyrazol-1-yl}-1-(methylsulfonyl)azetidin-3-yl]acetonitrile], the IC50 on JAK3 was more than 10000 nM; at JAK1 it was 994 nM; at JAK2 it was 532 nM; on TYK2 it was 96 nM.
The matching figures for `Cn1cc(-c2cc3ncccc3c(-c3ccn(C4(CC#N)CN(CC(F)(F)F)C4)n3)n2)ccc1=O` [Example 249, [3-{3-[7-(1-methyl-6-oxo-1,6-dihydropyridin-3-yl)-1,6-naphthyridin-5-yl]-1H-pyrazol-1-yl}-1-(2,2,2-trifluoroethyl)azetidin-3-yl]acetonitrile]: more than 10000 nM, 1080 nM, 1150 nM and 178 nM.
The corresponding values for `Cc1cc(-c2cc3ncccc3c(-c3ccn(C4(CC#N)CN(CC(F)(F)F)C4)n3)n2)c[nH]c1=O` [Example 250, [3-{3-[7-(5-methyl-6-oxo-1,6-dihydropyridin-3-yl)-1,6-naphthyridin-5-yl]-1H-pyrazol-1-yl}-1-(2,2,2-trifluoroethyl)azetidin-3-yl]acetonitrile] are more than 10000 nM, 1260 nM, 821 nM and 55 nM.
Turning to `CCn1cc(-c2cc3ncccc3c(-c3ccn(C4(CC#N)CN(S(C)(=O)=O)C4)n3)n2)ccc1=O` [Example 251, [3-{3-[7-(1-ethyl-6-oxo-1,6-dihydropyridin-3-yl)-1,6-naphthyridin-5-yl]-1H-pyrazol-1-yl}-1-(methylsulfonyl)azetidin-3-yl]acetonitrile], the IC50 at JAK3 was more than 10000 nM; at JAK1, 541 nM; at JAK2 it was 229 nM; on TYK2, 48 nM.
In the case of `CS(=O)(=O)N1CC(CC#N)(n2ccc(-c3nc(-c4ccccc4O)cc4ncccc34)n2)C1` [Example 252, [3-{3-[7-(2-hydroxyphenyl)-1,6-naphthyridin-5-yl]-1H-pyrazol-1-yl}-1-(methylsulfonyl)azetidin-3-yl]acetonitrile], the IC50 is more than 10000 nM on JAK3, 663 nM at JAK1, 118 nM at JAK2 and 15 nM at TYK2.
Turning to `CS(=O)(=O)N1CC(CC#N)(n2ccc(-c3nc(-c4ccc(O)cc4)cc4ncccc34)n2)C1` [Example 254, [3-{3-[7-(4-hydroxyphenyl)-1,6-naphthyridin-5-yl]-1H-pyrazol-1-yl}-1-(methylsulfonyl)azetidin-3-yl]acetonitrile], the IC50 on JAK3 was more than 10000 nM; on JAK1, 237 nM; at JAK2 it was 205 nM; on TYK2, 11 nM.
For `CS(=O)(=O)N1CC(CC#N)(n2ccc(-c3nc(-c4ccccc4CO)cc4ncccc34)n2)C1` [Example 255, [3-(3-{7-[2-(hydroxymethyl)phenyl]-1,6-naphthyridin-5-yl}-1H-pyrazol-1-yl)-1-(methylsulfonyl)azetidin-3-yl]acetonitrile], the IC50 was more than 10000 nM on JAK3, more than 10000 nM on JAK1, more than 10000 nM at JAK2 and 3170 nM at TYK2.
In the case of `CS(=O)(=O)N1CC(CC#N)(n2ccc(-c3nc(-c4ccccc4F)cc4ncccc34)n2)C1` [Example 258, [3-{3-[7-(2-fluorophenyl)-1,6-naphthyridin-5-yl]-1H-pyrazol-1-yl}-1-(methylsulfonyl)azetidin-3-yl]acetonitrile], the IC50 was more than 10000 nM at JAK3, more than 10000 nM at JAK1, more than 10000 nM on JAK2 and 255 nM on TYK2.
For the compound `CS(=O)(=O)N1CC(CC#N)(n2ccc(-c3nc(-c4ccc(F)cc4O)cc4ncccc34)n2)C1` [Example 259, [3-{3-[7-(4-fluoro-2-hydroxyphenyl)-1,6-naphthyridin-5-yl]-1H-pyrazol-1-yl}-1-(methylsulfonyl)azetidin-3-yl]acetonitrile], the IC50 on JAK3 was more than 10000 nM; at JAK1 it was more than 10000 nM; at JAK2, 566 nM; at TYK2, 19 nM.
Regarding `CS(=O)(=O)N1CC(CC#N)(n2ccc(-c3nc(-c4ccc(O)c(F)c4)cc4ncccc34)n2)C1` [Example 260, [3-{3-[7-(3-fluoro-4-hydroxyphenyl)-1,6-naphthyridin-5-yl]-1H-pyrazol-1-yl}-1-(methylsulfonyl)azetidin-3-yl]acetonitrile], the IC50 at JAK3 is more than 10000 nM; on JAK1, 198 nM; at JAK2 it was 325 nM; at TYK2 it was 27 nM.
Regarding `CS(=O)(=O)N1CC(CC#N)(n2ccc(-c3nc(-c4cc(O)cc(F)c4)cc4ncccc34)n2)C1` [Example 261, [3-{3-[7-(3-fluoro-5-hydroxyphenyl)-1,6-naphthyridin-5-yl]-1H-pyrazol-1-yl}-1-(methylsulfonyl)azetidin-3-yl]acetonitrile], the IC50 was more than 10000 nM on JAK3, more than 10000 nM at JAK1, more than 10000 nM at JAK2 and 118 nM on TYK2.
As to `CS(=O)(=O)N1CC(CC#N)(n2ccc(-c3nc(-c4cc(F)ccc4O)cc4ncccc34)n2)C1` [Example 262, [3-{3-[7-(5-fluoro-2-hydroxyphenyl)-1,6-naphthyridin-5-yl]-1H-pyrazol-1-yl}-1-(methylsulfonyl)azetidin-3-yl]acetonitrile], the IC50 on JAK3 was more than 10000 nM; at JAK1 it was more than 10000 nM; on JAK2 it was more than 10000 nM; on TYK2, 242 nM.
Turning to `CCN1CC(CC#N)(n2ccc(-c3nc(C4=CCOCC4)cc4ncccc34)n2)C1` [Example 263, (3-{3-[7-(3,6-dihydro-2H-pyran-4-yl)-1,6-naphthyridin-5-yl]-1H-pyrazol-1-yl}-1-ethylazetidin-3-yl)acetonitrile], the IC50 was more than 10000 nM on JAK3, more than 10000 nM at JAK1, 9570 nM on JAK2 and 1390 nM on TYK2.
On to `CCN1CC(CC#N)(n2ccc(-c3nc(N4CCOCC4)cc4ncccc34)n2)C1` [Example 264, (1-ethyl-3-{3-[7-(morpholin-4-yl)-1,6-naphthyridin-5-yl]-1H-pyrazol-1-yl}azetidin-3-yl)acetonitrile], for which the IC50 on JAK3 is more than 10000 nM; at JAK1, more than 10000 nM; on JAK2, more than 10000 nM; at TYK2 it was 6990 nM.
As to `CCN1CC(CC#N)(n2ccc(-c3nc(N4CCCC4)cc4ncccc34)n2)C1` [Example 265, (1-ethyl-3-{3-[7-(pyrrolidin-1-yl)-1,6-naphthyridin-5-yl]-1H-pyrazol-1-yl}azetidin-3-yl)acetonitrile], the IC50 at JAK3 is more than 10000 nM; on JAK1, more than 10000 nM; on JAK2 it was more than 10000 nM; at TYK2 it was 4820 nM.
Turning to `N#CCC1(n2ccc(-c3nc(Oc4cccc(N)n4)cc4ncccc34)n2)CC(C#N)C1` (stereo not drawn) [Example 266, trans-3-(3-{7-[(6-aminopyridin-2-yl)oxy]-1,6-naphthyridin-5-yl}-1H-pyrazol-1-yl)-3-(cyanomethyl)cyclobutanecarbonitrile], the IC50 on JAK3 is more than 10000 nM; on JAK1, more than 10000 nM; at JAK2, 3320 nM; on TYK2, 1910 nM.
For `Cc1cc(-c2nc(-c3ccn[nH]3)cc3ncccc23)nn1C1(CC#N)CN(S(C)(=O)=O)C1` [Example 267, [3-{5-methyl-3-[7-(1H-pyrazol-5-yl)-1,6-naphthyridin-5-yl]-1H-pyrazol-1-yl}-1-(methylsulfonyl)azetidin-3-yl]acetonitrile], the IC50 on JAK3 is more than 10000 nM; on JAK1 it was 2950 nM; on JAK2, 843 nM; at TYK2, 57 nM.

For the origin of these results see US11254668B2, “Pyrazolo[1,5-A]pyrazin-4-yl and related derivatives” (Pfizer Inc., priority 2017, dated 2022).
